Source: patent publication US8975291B2, “Indoles” (GlaxoSmithKline LLC, priority 2010, dated 2015)
Where two headings read alike, the source gives them in different places.

Molecular target: T1, EZH2 within the PRC2 complex (Homo sapiens, UniProt Q15910)
T1 construct: FLAG; made in house; host or cells: Sf9 cells
Test: EZH2 methyltransferase scintillation proximity assay (SPA) with PRC2 complex
Type: biochemical
Experimental: Compounds contained herein were evaluated for their ability to inhibit the methyltransferase activity of EZH2 within the PRC2 complex. Human PRC2 complex was prepared by co-expressing each of the 5 member proteins (FLAG-EZH2, EED, SUZ12, RbAp48, AEBP2) in Sf9 cells followed by co-purification. Enzyme activity was measured in a scintillation proximity assay (SPA) where a tritiated methyl group is transferred from 3H-SAM to a lysine residue on Histone H3 of a mononucleosome, purified from HeLa cells. Mononucleosomes were captured on SPA beads and the resulting signal is read on a ViewLux plate reader.
Part A. Compound Preparation
• 1. Prepare 10 mM stock of compounds from solid in 100% DMSO. • 2. Set up an 11-point serial dilution (1:3 dilution, top concentration 10 mM) in 100% DMSO for each test compound in a 384 well plate leaving columns 6 and 18 for DMSO controls. • 3. Dispense […] of compound from the dilution plate into reaction plates (Grenier Bio-One, 384-well, Cat #784075). Part B. Reagent Preparation Prepare the following solutions: • 1. 50 mM Tris-HCl, pH 8: Per 1 L of base buffer, combine 1 M Tris-HCl, pH 8 (50 mL) and distilled water (950 mL). • 2. […] 2× Enzyme Solution: Per 10 mL of 2× Enzyme Solution, combine 1× Assay Buffer and PRC2 complex to provide a final enzyme concentration of 10 nM. • 4. SPA Bead Suspension: Per 1 mL of SPA Bead Suspension, combine PS-PEI coated LEADSeeker beads (40 mg) and ddH2O (1 mL) to provide a final concentration of 40 mg/mL. • 5. 2× Substrate Solution: Per 10 mL of 2× Substrate Solution, combine 1× Assay Buffer (9728.55 uL), 800 ug/mL mononucleosomes (125 uL), 1 mM cold SAM (4 uL), and 7.02 uM 3H-SAM (142.45 uL; 0.55 mCi/mL) to provide a final concentration of 5 ug/mL nucleosomes, 0.2 uM cold SAM, and 0.05 uM 3H-SAM. • 6. 2.67× Quench/Bead Mixture: Per 10 mL of 2.67× Quench/Bead Mixture, combine ddH2O (9358 uL), 10 mM cold SAM (267 uL), 40 mg/mL Bead Suspension (375 uL) to provide a final concentration of 100 uM cold SAM and 0.5 mg/mL SPA beads. Part C. Assay Reaction in 384-well Grenier Bio-One Plates Compound Addition • 1. Dispense […] of 100× Compound to test wells (as noted above). • 2. Dispense […] of 100% DMSO to columns 6 & 18 for high and low controls, respectively. Assay • 1. […] Dispense 5 uL/well of 2× Enzyme Solution to columns 1-17, 19-24. • 3. Spin assay plates for ˜1 minute at 500 rpm. • 4. Stack the assay plates, covering the top plate. • 5. Incubate the compound/DMSO with the enzyme for 30 minutes at room temperature. • 6. Dispense 5 uL/well of 2× Substrate Solution to columns 1-24. • 7. Spin assay plates for ˜1 minute at 500 rpm. • 8. Stack the assay plates, covering the top plate. • 9. Incubate the assay plates at room temperature for 1 hour. Quench/Bead Addition • 1. Dispense 5 uL/well of the 3× Quench/Bead Mixture to columns 1-24. • 2. Seal the top of each assay plate with adhesive TopSeal. • 3. Spin assay plates for ˜1 minute at 500 rpm. • 4. Equilibrate the plates for >20 min. Read Plates • 1. Read the assay plates on the Viewlux Plate Reader utilizing the 613 nm emission filter with a 300 s read time. Reagent addition can be done manually or with automated liquid handler. • The final DMSO concentration in this assay is 1%. • The positive control is in column 6; negative control is in column 18. • Final starting concentration of compounds is 100 μM. Part D. Data Analysis
Percent inhibition was calculated relative to the DMSO control for each compound concentration and the resulting values were fit using standard IC50 fitting parameters within the ABASE data fitting software package.

[1] = EZH2 inhibition, foregoing or analogous assay, unit inferred, read-out: IC50
[2] = 3H-SAM methyl transfer to Histone H3 of HeLa mononucleosomes, read-out: EZH2 pIC50 (converted)

T1 sequence (Q15910 whole entry): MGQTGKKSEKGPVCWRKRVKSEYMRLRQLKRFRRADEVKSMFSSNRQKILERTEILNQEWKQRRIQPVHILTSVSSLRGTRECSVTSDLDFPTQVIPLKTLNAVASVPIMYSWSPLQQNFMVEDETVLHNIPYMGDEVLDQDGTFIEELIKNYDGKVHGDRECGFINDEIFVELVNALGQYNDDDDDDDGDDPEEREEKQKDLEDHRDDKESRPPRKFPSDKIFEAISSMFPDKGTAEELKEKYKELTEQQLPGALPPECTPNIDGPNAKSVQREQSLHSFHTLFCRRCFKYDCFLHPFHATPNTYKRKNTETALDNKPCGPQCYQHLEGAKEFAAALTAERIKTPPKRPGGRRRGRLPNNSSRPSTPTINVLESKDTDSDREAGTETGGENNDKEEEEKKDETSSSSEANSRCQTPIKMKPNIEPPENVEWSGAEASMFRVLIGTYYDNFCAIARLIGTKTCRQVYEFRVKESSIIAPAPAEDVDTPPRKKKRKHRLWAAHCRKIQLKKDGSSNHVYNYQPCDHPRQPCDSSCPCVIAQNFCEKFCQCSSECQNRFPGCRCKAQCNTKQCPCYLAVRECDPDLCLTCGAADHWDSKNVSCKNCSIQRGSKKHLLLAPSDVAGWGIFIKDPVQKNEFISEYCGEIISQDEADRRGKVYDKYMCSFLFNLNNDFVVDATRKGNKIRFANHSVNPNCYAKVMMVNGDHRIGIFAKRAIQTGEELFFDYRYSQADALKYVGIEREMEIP
T1 sequence (O75530 whole entry partner): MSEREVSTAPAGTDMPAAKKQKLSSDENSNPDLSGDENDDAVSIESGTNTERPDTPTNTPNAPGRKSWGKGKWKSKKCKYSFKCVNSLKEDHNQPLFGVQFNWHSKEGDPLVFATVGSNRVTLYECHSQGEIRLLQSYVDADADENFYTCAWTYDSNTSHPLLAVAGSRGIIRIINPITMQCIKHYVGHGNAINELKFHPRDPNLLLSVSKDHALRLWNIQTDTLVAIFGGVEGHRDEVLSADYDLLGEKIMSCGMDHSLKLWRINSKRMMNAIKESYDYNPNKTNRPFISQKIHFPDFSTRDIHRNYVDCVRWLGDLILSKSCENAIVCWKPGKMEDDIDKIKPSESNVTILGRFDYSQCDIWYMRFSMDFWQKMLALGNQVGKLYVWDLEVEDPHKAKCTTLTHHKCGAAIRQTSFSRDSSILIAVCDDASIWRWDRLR
T1 sequence (Q15022 whole entry partner): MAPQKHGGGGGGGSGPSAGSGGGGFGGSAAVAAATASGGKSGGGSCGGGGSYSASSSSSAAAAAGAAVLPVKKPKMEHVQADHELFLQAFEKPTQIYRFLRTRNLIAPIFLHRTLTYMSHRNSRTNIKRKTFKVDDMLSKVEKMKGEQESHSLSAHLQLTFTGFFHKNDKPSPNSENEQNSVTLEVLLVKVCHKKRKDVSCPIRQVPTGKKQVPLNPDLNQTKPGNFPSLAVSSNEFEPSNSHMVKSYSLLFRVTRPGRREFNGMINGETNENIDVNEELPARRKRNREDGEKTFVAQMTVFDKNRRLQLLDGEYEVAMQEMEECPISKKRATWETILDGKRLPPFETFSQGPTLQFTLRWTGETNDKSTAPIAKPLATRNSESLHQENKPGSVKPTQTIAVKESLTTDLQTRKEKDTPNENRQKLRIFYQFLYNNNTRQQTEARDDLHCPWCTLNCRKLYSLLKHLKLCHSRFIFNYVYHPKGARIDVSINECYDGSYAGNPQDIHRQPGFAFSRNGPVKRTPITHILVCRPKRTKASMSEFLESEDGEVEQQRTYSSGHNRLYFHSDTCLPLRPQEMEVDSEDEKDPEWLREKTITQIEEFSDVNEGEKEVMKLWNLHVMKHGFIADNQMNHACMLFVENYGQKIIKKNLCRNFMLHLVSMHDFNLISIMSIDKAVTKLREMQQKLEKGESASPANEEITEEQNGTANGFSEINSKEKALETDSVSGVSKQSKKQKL
T1 sequence (Q09028 whole entry partner): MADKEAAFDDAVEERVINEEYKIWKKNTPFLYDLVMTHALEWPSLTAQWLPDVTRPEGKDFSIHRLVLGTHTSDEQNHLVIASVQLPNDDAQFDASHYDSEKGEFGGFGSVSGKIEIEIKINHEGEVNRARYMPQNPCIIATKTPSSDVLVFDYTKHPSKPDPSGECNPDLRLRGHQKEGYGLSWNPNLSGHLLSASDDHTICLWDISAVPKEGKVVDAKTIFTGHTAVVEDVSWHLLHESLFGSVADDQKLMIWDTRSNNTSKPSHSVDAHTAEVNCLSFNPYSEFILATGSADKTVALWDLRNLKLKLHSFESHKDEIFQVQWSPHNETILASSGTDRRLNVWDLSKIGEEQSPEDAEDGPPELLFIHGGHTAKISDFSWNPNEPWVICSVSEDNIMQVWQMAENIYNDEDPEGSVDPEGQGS
T1 sequence (Q6ZN18 whole entry partner): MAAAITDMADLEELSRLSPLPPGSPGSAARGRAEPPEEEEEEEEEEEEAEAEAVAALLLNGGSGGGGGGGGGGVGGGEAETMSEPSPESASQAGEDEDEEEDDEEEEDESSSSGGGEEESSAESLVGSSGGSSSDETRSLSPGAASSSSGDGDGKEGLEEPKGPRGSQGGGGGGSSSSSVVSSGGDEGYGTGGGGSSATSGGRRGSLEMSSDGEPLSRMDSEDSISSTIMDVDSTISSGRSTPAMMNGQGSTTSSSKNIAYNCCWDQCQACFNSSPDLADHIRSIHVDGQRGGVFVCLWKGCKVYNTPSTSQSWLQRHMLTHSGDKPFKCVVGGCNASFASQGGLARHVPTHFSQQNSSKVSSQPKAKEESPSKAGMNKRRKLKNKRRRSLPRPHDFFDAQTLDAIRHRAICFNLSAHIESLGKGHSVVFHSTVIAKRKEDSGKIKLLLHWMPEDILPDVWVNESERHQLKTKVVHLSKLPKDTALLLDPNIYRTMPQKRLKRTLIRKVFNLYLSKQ

Row | IC50 [1] [nM] | IC50 [2] [nM] | SMILES
1 | 3 | – | Cc1cc(C)c(CNC(=O)c2cc(-c3ccc(N4CCNCC4)nc3)cc3c2c(C)cn3C2CCCC2)c(=O)[nH]1 [Ex 275, 1-cyclopentyl-N-((4,6-dimethyl-2-oxo-1,2-dihydropyridin-3-yl)methyl)-3-methyl-6-(6-(piperazin-1-yl)pyridin-3-yl)-1H-indole-4-carboxamide]
2 | – | 468 | Cc1cc(C)c(CNC(=O)c2cc(B(O)O)cc3c2c(C)cn3C(C)C)c(=O)[nH]1 [Example 358, [4-({[(4,6-dimethyl-2-oxo-1,2-dihydro-3-pyridinyl)methyl]amino)carbonyl)-3-methyl-1-(1-methylethyl)-1H-indol-6-yl]boronic acid]
3 | 13 | – | CCC(C)n1cc(C)c2c(C(=O)NCc3c(C)cc(C)[nH]c3=O)cc(-c3cccc(CN(C)C)c3)cc21 (centres unmarked) [Ex 272, 1-(sec-Butyl)-N-((4,6-dimethyl-2-oxo-1,2-dihydropyridin-3-yl)methyl)-6-(3-((dimethylamino)methyl)phenyl)-3-methyl-1H-indole-4-carboxamide]
4 | 32 | – | CC[C@@H](C)n1cc(C)c2c(C(=O)NCc3c(C)cc(C)[nH]c3=O)cc(-c3cccc(CN(C)C)c3)cc21 [Ex 274, 6-{3-[(dimethylamino)methyl]phenyl}-N-[(4,6-dimethyl-2-oxo-1,2-dihydro-3-pyridinyl)methyl]-3-methyl-1-[(1R)-1-methylpropyl]-1H-indole-4-carboxamide]
5 | – | 25.1 | Cc1cc(C)c(CNC(=O)c2cc(-c3ccc(CN4CCN(C)CC4)nc3)cc3c2c(C)cn3C(C)C)c(=O)[nH]1 [Example 349, N-[(4,6-dimethyl-2-oxo-1,2-dihydro-3-pyridinyl)methyl]-3-methyl-1-(1-methylethyl)-6-{6-[(4-methyl-1-piperazinyl)methyl]-3-pyridinyl}-1H-indole-4-carboxamide]
6 | 14 | – | Cc1cc(C)c(CNC(=O)c2cc(-c3ccc4[nH]cnc4c3)cc3c2c(C)cn3C(C)C)c(=O)[nH]1 [Ex 211, 6-(1H-benzimidazol-5-yl)-N-[(4,6-dimethyl-2-oxo-1,2-dihydro-3-pyridinyl)methyl]-3-methyl-1-(1-methylethyl)-1H-indole-4-carboxamide]
7 | 29 | – | Cc1cc(C)c(CNC(=O)c2cc(-c3cc4[nH]ncc4cn3)cc3c2c(C)cn3C(C)C)c(=O)[nH]1 [Ex 244, N-((4,6-dimethyl-2-oxo-1,2-dihydropyridin-3-yl)methyl)-1-isopropyl-3-methyl-6-(1H-pyrazolo[4,3-c]pyridin-6-yl)-1H-indole-4-carboxamide]
8 | 18 | – | Cc1cc(C)c(CNC(=O)c2cc(-c3ccc(OCCN(C)C)cc3)cc3c2c(C)cn3C(C)C)c(=O)[nH]1 [Ex 174, 6-(4-{[2-(dimethylamino)ethyl]oxy}phenyl)-N-[(4,6-dimethyl-2-oxo-1,2-dihydro-3-pyridinyl)methyl]-3-methyl-1-(1-methylethyl)-1H-indole-4-carboxamide]
9 | 13 | – | Cc1cc(C)c(CNC(=O)c2cc(-c3ccc(N4CCNC(C)(C)C4)nc3)cc3c2c(C)cn3C(C)C)c(=O)[nH]1 [Ex 339, N-[(4,6-dimethyl-2-oxo-1,2-dihydro-3-pyridinyl)methyl]-6-[6-(3,3-dimethyl-1-piperazinyl)-3-pyridinyl]-3-methyl-1-(1-methylethyl)-1H-indole-4-carboxamide]
10 | 10 | – | CC[C@H](C)n1cc(C)c2c(C(=O)NCc3c(C)cc(C)[nH]c3=O)cc(-c3cccc(CN(C)C)c3)cc21 [Ex 273, 6-{3-[(Dimethylamino)methyl]phenyl}-N-[(4,6-dimethyl-2-oxo-1,2-dihydro-3-pyridinyl)methyl]-3-methyl-1-[(1S)-1-methylpropyl]-1H-indole-4-carboxamide]
11 | – | 36.3 | Cc1cc(C)c(CNC(=O)c2cc(-c3ccc(CN4C[C@@H](C)O[C@@H](C)C4)nc3)cc3c2c(C)cn3C(C)C)c(=O)[nH]1 [Example 348, 6-(6-{[(2R,6S)-2,6-dimethyl-4-morpholinyl]methyl}-3-pyridinyl)-N-[(4,6-dimethyl-2-oxo-1,2-dihydro-3-pyridinyl)methyl]-3-methyl-1-(1-methylethyl)-1H-indole-4-carboxamide]
12 | 25 | – | CCC(C)n1cc(C)c2c(C(=O)NCc3c(C)cc(C)[nH]c3=O)cc(Br)cc21 (centres unmarked) [Ex 266, 6-bromo-1-(sec-butyl)-N-((4,6-dimethyl-2-oxo-1,2-dihydropyridin-3-yl)methyl)-3-methyl-1H-indole-4-carboxamide]
13 | – | 22.9 | Cc1cc(C)c(CNC(=O)c2cc(-c3ccc(CN4CCOCC4)nc3)cc3c2c(C)cn3C(C)C)c(=O)[nH]1 [Example 350, N-[(4,6-dimethyl-2-oxo-1,2-dihydro-3-pyridinyl)methyl]-3-methyl-1-(1-methylethyl)-6-[6-(4-morpholinylmethyl)-3-pyridinyl]-1H-indole-4-carboxamide]
14 | 9 | – | Cc1cc(C)c(CNC(=O)c2cc(-c3ccc4c(N)n[nH]c4c3)cc3c2c(C)cn3C(C)C)c(=O)[nH]1 [Ex 212, 6-(3-amino-1H-indazol-6-yl)-N-[(4,6-dimethyl-2-oxo-1,2-dihydro-3-pyridinyl)methyl]-3-methyl-1-(1-methylethyl)-1H-indole-4-carboxamide]
15 | 20 | – | CC[C@H](C)n1cc(C)c2c(C(=O)NCc3c(C)cc(C)[nH]c3=O)cc(Br)cc21 [Ex 267, (S)-6-bromo-1-(sec-butyl)-N-((4,6-dimethyl-2-oxo-1,2-dihydropyridin-3-yl)methyl)-3-methyl-1H-indole-4-carboxamide]
16 | 40 | – | CC[C@@H](C)n1cc(C)c2c(C(=O)NCc3c(C)cc(C)[nH]c3=O)cc(Br)cc21 [Ex 268, (R)-6-Bromo-1-(sec-butyl)-N-((4,6-dimethyl-2-oxo-1,2-dihydropyridin-3-yl)methyl)-3-methyl-1H-indole-4-carboxamide]
17 | 1800 | – | Cc1cc(C)c(CNC(=O)c2cc(Br)cc3c2c(C)cn3CC(C)N(C)C)c(=O)[nH]1 (centres unmarked) [Ex 78, 6-bromo-N-((4,6-dimethyl-2-oxo-1,2-dihydropyridin-3-yl)methyl)-1-(2-(dimethylamino)propyl)-3-methyl-1H-indole-4-carboxamide]
18 | 1000 | – | Cc1cc(Cn2cccn2)c(CNC(=O)c2cc(Br)cc3c2c(C)cn3C(C)C)c(=O)[nH]1 [Ex 234, 6-bromo-3-methyl-1-(1-methylethyl)-N-{[6-methyl-2-oxo-4-(1H-pyrazol-1-ylmethyl)-1,2-dihydro-3-pyridinyl]methyl}-1H-indole-4-carboxamide]
19 | – | 288 | Cc1cc(C)c(CNC(=O)c2cc(C3COC3)cc3c2c(C)cn3C(C)C)c(=O)[nH]1 [Example 360, N-[(4,6-dimethyl-2-oxo-1,2-dihydro-3-pyridinyl)methyl]-3-methyl-1-(1-methylethyl)-6-(3-oxetanyl)-1H-indole-4-carboxamide]
20 | – | 55 | Cc1cc(C)c(CNC(=O)c2cc(Nc3ccc(N4CCN(C)CC4)nc3)cc3c2c(C)cn3C(C)C)c(=O)[nH]1 [Example 361, N-[(4,6-dimethyl-2-oxo-1,2-dihydro-3-pyridinyl)methyl]-3-methyl-1-(1-methylethyl)-6-{[6-(4-methyl-1-piperazinyl)-3-pyridinyl]amino)-1H-indole-4-carboxamide]
